Where only a bound is given, the exact number is not on record here.

The target in one series is PDGFRα (Homo sapiens (Human), UniProt P16234). The series is described as follows: PDGFRα kinase enzyme assay (Promega PDGFRα Kinase Enzyme System, ADP-Glo). The series is classed as biochemical. The note with it: 11-point dose response, 10,000 nM to 0.169 nM; 150 uM ATP; BLQ = below limit of quantitation; read-out: IC50 Values on PDGFRα Kinase Inhibition, IC50. The gist of the method: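 Read-out was ADP-Glo: remaining ATP depleted, ADP converted to luminescence and compared with a standard curve.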

For series [1], the system named is Oligodendrocyte progenitor cells (OPCs). Description: In vitro OPC differentiation assay, GPR17 expression (immunocytochemistry). The note with it: 3 μM (10× concentration, final 0.3 μM); 72 hours; fold change over vehicle.

PDGFRα, sequence (P16234 24-1089): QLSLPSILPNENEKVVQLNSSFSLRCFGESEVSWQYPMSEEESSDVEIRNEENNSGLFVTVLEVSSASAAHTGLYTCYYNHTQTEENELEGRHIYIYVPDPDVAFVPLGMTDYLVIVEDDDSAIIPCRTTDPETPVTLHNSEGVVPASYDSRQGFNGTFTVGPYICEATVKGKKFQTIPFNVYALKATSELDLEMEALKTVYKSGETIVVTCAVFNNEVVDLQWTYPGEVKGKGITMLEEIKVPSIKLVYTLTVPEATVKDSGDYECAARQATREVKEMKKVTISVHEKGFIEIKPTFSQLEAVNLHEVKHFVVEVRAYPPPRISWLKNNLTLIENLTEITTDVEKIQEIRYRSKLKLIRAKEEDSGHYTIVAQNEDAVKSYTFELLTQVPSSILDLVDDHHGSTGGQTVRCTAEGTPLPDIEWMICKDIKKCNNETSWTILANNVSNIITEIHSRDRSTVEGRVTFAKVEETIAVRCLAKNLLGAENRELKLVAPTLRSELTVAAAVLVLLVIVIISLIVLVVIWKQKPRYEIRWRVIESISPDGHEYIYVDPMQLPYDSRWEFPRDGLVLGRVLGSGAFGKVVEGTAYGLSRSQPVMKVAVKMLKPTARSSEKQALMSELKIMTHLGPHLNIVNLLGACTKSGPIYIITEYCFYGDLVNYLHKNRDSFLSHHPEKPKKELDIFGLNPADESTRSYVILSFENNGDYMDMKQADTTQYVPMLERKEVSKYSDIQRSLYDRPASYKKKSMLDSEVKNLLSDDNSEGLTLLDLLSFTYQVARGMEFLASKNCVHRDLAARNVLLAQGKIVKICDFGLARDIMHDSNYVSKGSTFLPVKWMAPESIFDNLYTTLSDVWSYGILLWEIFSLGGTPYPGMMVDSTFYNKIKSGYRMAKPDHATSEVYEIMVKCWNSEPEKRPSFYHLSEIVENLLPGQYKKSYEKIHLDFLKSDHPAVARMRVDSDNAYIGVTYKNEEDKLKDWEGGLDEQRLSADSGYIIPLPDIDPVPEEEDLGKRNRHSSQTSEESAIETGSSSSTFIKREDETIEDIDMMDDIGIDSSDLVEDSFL

For `CC(C)(C)OC(=O)N1CCN(c2cnn3cc(C4CC4)ccc23)CC1` [Compound 213, tert-butyl 4-{6-cyclopropylpyrazolo[1,5-a]pyridin-3-yl}piperazine-1-carboxylate], the IC50 at PDGFRα is > 10000 nM. Also, the “GPR17 Fold Induction (Over Vehicle; 3 μM)” value (“GPR17 Fold Induction” below) in series [1] was determined as 0.68.

As for `CC(C)(C)OC(=O)N1CCN(c2cnn3cc(C4CCCC4)ccc23)CC1` [Compound 214, tert-butyl 4-(6-cyclopentylpyrazolo[1,5-a]pyridin-3-yl)piperazine-1-carboxylate], on PDGFRα, the IC50 was > 10000 nM. Also, the “GPR17 Fold Induction” value in series [1] is listed as 2.00.

Take `CC(C)(C)OC(=O)N1CCN(c2cnn3cc(C4CCC(O)C4)ccc23)CC1` (stereo not drawn) [Compound 215, tert-butyl 4-[6-(3-hydroxycyclopentyl)pyrazolo[1,5-a]pyridin-3-yl]piperazine-1-carboxylate]: on PDGFRα, the IC50 is > 10000 nM. Further, the “GPR17 Fold Induction” value in series [1] worked out at 0.76.

For `CC(C)(C)OC(=O)N1CCN(c2cnn3cc(-c4ccccn4)ccc23)CC1` [Compound 216, tert-butyl 4-[6-(pyridin-2-yl)pyrazolo[1,5-a]pyridin-3-yl]piperazine-1-carboxylate], at PDGFRα, the IC50 came out at 1000 nM. Also, in series [1], the “GPR17 Fold Induction” value is given as 1.92.

As for `CC(C)(C)OC(=O)N1CCN(c2cnn3cc(-c4ccncc4)ccc23)CC1` [Compound 218, tert-butyl 4-(6-(pyridin-4-yl)pyrazolo[1,5-a]pyridin-3-yl)piperazine-1-carboxylate], the IC50 on PDGFRα was determined as 2310 nM. Further, the “GPR17 Fold Induction” value in series [1] was 3.46.

Turning to `CC(C)(C)OC(=O)N1CCN(c2cnn3cc(-c4cncnc4)ccc23)CC1` [Compound 219, tert-butyl 4-(6-(pyrimidin-5-yl)pyrazolo[1,5-a]pyridin-3-yl)piperazine-1-carboxylate], on PDGFRα, the IC50 was > 10000 nM. Further, in series [1], the “GPR17 Fold Induction” value is reported as 1.42.

Take `Cc1nn(C)cc1-c1ccc2c(N3CCN(C(=O)OC(C)(C)C)CC3)cnn2c1` [Compound 220, tert-butyl 4-(6-(1,3-dimethyl-1H-pyrazol-4-yl)pyrazolo[1,5-a]pyridin-3-yl)piperazine-1-carboxylate]: on PDGFRα, the IC50 was 528 nM. The “GPR17 Fold Induction” value in series [1] turned out to be 5.20.

As for `Cc1c(-c2ccc3c(N4CCN(C(=O)OC(C)(C)C)CC4)cnn3c2)cnn1C` [Compound 221, tert-butyl 4-(6-(1,5-dimethyl-1H-pyrazol-4-yl)pyrazolo[1,5-a]pyridin-3-yl)piperazine-1-carboxylate], the IC50 on PDGFRα turned out to be 506 nM. The “GPR17 Fold Induction” value in series [1] is recorded as 6.61.

In the case of `Cc1nn(C)c(C)c1-c1ccc2c(N3CCN(C(=O)OC(C)(C)C)CC3)cnn2c1` [Compound 222, tert-butyl 4-(6-(1,3,5-trimethyl-1H-pyrazol-4-yl)pyrazolo[1,5-a]pyridin-3-yl)piperazine-1-carboxylate], the IC50 on PDGFRα was 912 nM. Also, in series [1], the “GPR17 Fold Induction” value is reported as 3.74.

As to `CN1CCC(c2ccc3c(N4CCN(C(=O)OC(C)(C)C)CC4)cnn3c2)C1` (stereo not drawn) [Compound 223, tert-butyl 4-(6-(1-methylpyrrolidin-3-yl)pyrazolo[1,5-a]pyridin-3-yl)piperazine-1-carboxylate], on PDGFRα, the IC50 was 9250 nM. The “GPR17 Fold Induction” value in series [1] was 1.13.

Turning to `CC(C)(C)OC(=O)N1CCN(c2cnn3cc(C4CCOCC4)ccc23)CC1` [Compound 224, tert-butyl-4-(6-(tetrahydro-2H-pyran-4-yl)pyrazolo[1,5-a]pyridin-3-yl)piperazine-1-carboxylate], the IC50 at PDGFRα was > 10000 nM. Moreover, the “GPR17 Fold Induction” value in series [1] came to 0.66.

For `CN1CCC(c2ccc3c(N4CCN(C(=O)OC(C)(C)C)CC4)cnn3c2)CC1` [Compound 225, tert-butyl 4-(6-(1-methylpiperidin-4-yl)pyrazolo[1,5-a]pyridin-3-yl)piperazine-1-carboxylate], the IC50 at PDGFRα is > 10000 nM. The “GPR17 Fold Induction” value in series [1] is 1.55.

Values taken from patent US20250129067A1 (Progentos Therapeutics, Inc., priority 2021, published 2025).
